Reference: patent US8933113B2 (Merck Sharp & Dohme Corp., priority 2011, dated 2015)

Each molecule was assayed against T1, full-length human Mineralocorticoid Receptor (MR) (Homo sapiens, UniProt P08235) (assay: human MR NH Pro assay (PathHunter Protein:Protein interaction assay), MR antagonist activity). Conditions: PathHunter CHO-K1 cells overexpressing human MR; aldosterone about 0.3 nM; 6 hours at 37° C.; luminescence; read-out: Primary Assay IP rating (IP = inflection point for a given dose-response titration curve).
T1 construct: host or cells: PathHunter CHO-K1 cells
T1 sequence (P08235 1-984): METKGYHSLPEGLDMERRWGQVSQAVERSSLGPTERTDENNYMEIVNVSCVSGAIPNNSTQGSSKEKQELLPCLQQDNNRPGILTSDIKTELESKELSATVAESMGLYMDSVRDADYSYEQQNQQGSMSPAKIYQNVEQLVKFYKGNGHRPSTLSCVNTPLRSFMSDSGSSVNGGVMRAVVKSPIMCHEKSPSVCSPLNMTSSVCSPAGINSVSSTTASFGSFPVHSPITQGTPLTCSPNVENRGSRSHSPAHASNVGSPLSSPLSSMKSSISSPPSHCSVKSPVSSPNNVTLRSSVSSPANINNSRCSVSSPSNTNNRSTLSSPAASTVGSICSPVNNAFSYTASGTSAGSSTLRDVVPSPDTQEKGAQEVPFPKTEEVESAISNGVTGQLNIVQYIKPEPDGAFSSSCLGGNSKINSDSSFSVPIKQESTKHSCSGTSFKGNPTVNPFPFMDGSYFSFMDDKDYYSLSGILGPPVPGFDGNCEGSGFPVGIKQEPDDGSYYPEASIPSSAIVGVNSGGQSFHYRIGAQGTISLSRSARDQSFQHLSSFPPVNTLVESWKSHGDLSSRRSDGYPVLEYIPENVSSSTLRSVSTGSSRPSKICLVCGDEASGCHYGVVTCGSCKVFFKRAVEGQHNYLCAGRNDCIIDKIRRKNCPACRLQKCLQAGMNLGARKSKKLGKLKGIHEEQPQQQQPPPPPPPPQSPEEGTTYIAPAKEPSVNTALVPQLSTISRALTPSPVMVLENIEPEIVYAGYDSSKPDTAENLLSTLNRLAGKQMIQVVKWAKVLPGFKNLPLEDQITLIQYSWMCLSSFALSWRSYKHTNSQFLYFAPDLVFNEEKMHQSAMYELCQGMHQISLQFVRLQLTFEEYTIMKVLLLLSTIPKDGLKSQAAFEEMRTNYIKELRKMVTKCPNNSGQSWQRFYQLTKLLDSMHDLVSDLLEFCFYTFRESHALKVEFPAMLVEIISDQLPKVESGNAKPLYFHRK
Format: cell-based
Text: The activity of the compounds of the present invention regarding mineralocorticoid receptor antagonism can be evaluated using the following assay.
Assessment of MR Potency in HMR NH Pro Assay
The human MR NH Pro assay is a commercially available PathHunter™ Protein:Protein interaction assay (DiscoveRx; http://www.discoverx.com/nhrs/prod-nhrs.php) that measures the ability of compounds to antagonize full-length human Mineralocorticoid Receptor (MR) binding to a coactivator peptide.
6. Test compounds are titrated starting at 4.4 mM, 10-point titration in 1:3 dilution.
3. Add 5 μL 6× agonist (final aldosterone concentration should be about 0.3 nM to about 1.0 nM) to all wells (using the PlateMate Plus.)
• (ThermoFisher) (except those wells in columns 23 and 24) 4. Add 5 uL of assay media to all wells in column 23 and 24. 5. Incubate 6 hrs at 37° C., 5% CO2. 6. Add 15 uL 3× DiscoveRx detection reagent to each well. 7. Incubate 1 hour at room temperature (keep plates stored in the dark). 8. Read plates on Envision (PerkinElmer) luminesence plate reader and analyze using ADA.

First: CCC(C(=O)OC)(c1ccc(Cl)cc1)n1ccc2c(CCS(C)(=O)=O)cccc21 (centres unmarked) [Compound 153, Methyl 2-(4-chlorophenyl)-2-(4-(2-(methylsulfonyl)ethyl)-1H-indol-1-yl)butanoate]
Second: CC[C@](C(N)=O)(c1ccc(Cl)cc1)n1ccc2c(NS(C)(=O)=O)cccc21 [Compound 40, (R)-2-(4-chlorophenyl)-2-{4-[(methylsulfonyl)amino]-1H-indol-1-yl}butanamide]
The IC50 of the first is lower: < 100 nM for the first, 100 to 500 nM for the second. The first is the more potent here.

COC(=O)CC(C(=O)OC)(c1ccc(Cl)cc1)n1ccc2c(NS(C)(=O)=O)cccc21 (centres unmarked) [Compound 35, Dimethyl 2-(4-chlorophenyl)-2-{4-[(methylsulfonyl)amino]-1H-indol-1-yl}butanedioate] and CCC(C(=O)NCC#N)(c1ccc(Cl)cc1)n1ccc2c(NS(C)(=O)=O)cccc21 (centres unmarked) [Compound 51, 2-(4-chlorophenyl)-N-(cyanomethyl)-2-{4-[(methylsulfonyl)amino]-1H-indol-1-yl}butanamide] cannot be ordered by IC50: < 100 nM for the first, < 100 nM for the second.

Compared with COC(=O)C(c1cccc(Br)c1)n1ccc2c([N+](=O)[O-])cccc21 (centres unmarked) [Compound 4, methyl (3-bromophenyl)(4-nitro-1H-indol-1-yl)acetate], CCC(C(C)=O)(c1ccc(C(F)(F)F)cc1)n1ccc2c(NS(C)(=O)=O)cccc21 (single isomer, unassigned) [Compound 102, N-(1-(2-oxo-3-(4-(trifluoromethyl)phenyl)pentan-3-yl)-1H-indol-4-yl)methanesulfonamide] is lower in IC50: 500 to 5000 nM for the first, 100 to 500 nM for the second.

First: CC[C@@](c1ccc(Cl)cc1)(c1nc(-c2ccccc2)n[nH]1)n1ccc2c(NS(C)(=O)=O)cccc21 [Compound 64, (R)—N-{1-[1-(4-chlorophenyl)-1-(3-phenyl-1H-1,2,4-triazol-5-yl)propyl]-1H-indol-4-yl}methanesulfonamide]
Second: CC[C@@](c1ccc(Cl)cc1)(c1nnc(C)[nH]1)n1ccc2c(NS(C)(=O)=O)cccc21 [Compound 65, (R)—N-{1-[1-(4-chlorophenyl)-1-(5-methyl-4H-1,2,4-triazol-3-yl)propyl]-1H-indol-4-yl}methanesulfonamide]
The IC50 of the first is higher: 500 to 5000 nM for the first, 100 to 500 nM for the second.

First: CCn1ncc(C(CC)(c2ccc(Cl)cc2)n2ccc3c(NS(C)(=O)=O)cccc32)n1 (centres unmarked) [Compound 152, N-(1-(1-(4-chlorophenyl)-1-(2-ethyl-2H-1,2,3-triazol-4-yl)propyl)-1H-indol-4-yl)methanesulfonamide]
Second: CCC(c1ccc(Cl)cc1)(c1nnc(C(F)(F)F)o1)n1ccc2c(NS(C)(=O)=O)cccc21 (centres unmarked) [Compound 69, N-(1-{1-(4-chlorophenyl)-1-[5-(trifluoromethyl)-1,3,4-oxadiazol-2-yl]propyl}-1H-indol-4-yl)methanesulfonamide]
The IC50 of the first is lower: < 100 nM for the first, 100 to 500 nM for the second.

CCC(c1ccc(Cl)cc1)(n1ncc2c(NS(C)(=O)=O)cccc21)C(C)(C)O (single isomer, unassigned) [Compound 92, N-(1-(3-(4-chlorophenyl)-2-hydroxy-2-methylpentan-3-yl)-1H-indazol-4-yl)methane sulfonamide] and CCC(C(C)=O)(c1ccc(Cl)cc1)n1ncc2c(NS(C)(=O)=O)cccc21 (single isomer, unassigned) [Compound 100, N-(1-(3-(4-chlorophenyl)-2-oxopentan-3-yl)-1H-indazol-4-yl)methanesulfonamide] cannot be ordered by IC50: < 100 nM for the first, < 100 nM for the second.

Compared with CCC(C(C)=O)(c1ccc(C(F)(F)F)cc1)n1ccc2c(NS(C)(=O)=O)cccc21 (single isomer, unassigned) [Compound 103, N-(1-(2-oxo-3-(4-(trifluoromethyl)phenyl)pentan-3-yl)-1H-indol-4-yl)methanesulfonamide], CCC(c1ccc(C(F)(F)F)cc1)(C(C)O)n1ccc2c(NS(C)(=O)=O)cccc21 (single isomer, unassigned) [Compound 113, N-(1-(2-hydroxy-3-(4-(trifluoromethyl)phenyl)pentan-3-yl)-1H-indol-4-yl)methanesulfonamide] is lower in IC50: 100 to 500 nM for the first, < 100 nM for the second. The second is the more potent here.
